Assay results: patent US20190337924A1, “SUBSTITUTED HYDANTOIN AND THIOHYDANTOIN DERIVATIVES AS ANDROGEN RECEPTOR ANTAGONISTS” (Janssen Pharmaceutica NV, priority 2016, published 2019)
Where a name gives a salt, the structure may show the parent alone. Read-outs that look alike come from different tables or passages of the source.

Target: T1, F876L mutant Androgen Receptor (AR-F876L) (Homo sapiens, UniProt P10275, F877L)
T1 construct: expressed in transfected cells; host or cells: LNCaP
T1 sequence (P10275 1-920 F877L): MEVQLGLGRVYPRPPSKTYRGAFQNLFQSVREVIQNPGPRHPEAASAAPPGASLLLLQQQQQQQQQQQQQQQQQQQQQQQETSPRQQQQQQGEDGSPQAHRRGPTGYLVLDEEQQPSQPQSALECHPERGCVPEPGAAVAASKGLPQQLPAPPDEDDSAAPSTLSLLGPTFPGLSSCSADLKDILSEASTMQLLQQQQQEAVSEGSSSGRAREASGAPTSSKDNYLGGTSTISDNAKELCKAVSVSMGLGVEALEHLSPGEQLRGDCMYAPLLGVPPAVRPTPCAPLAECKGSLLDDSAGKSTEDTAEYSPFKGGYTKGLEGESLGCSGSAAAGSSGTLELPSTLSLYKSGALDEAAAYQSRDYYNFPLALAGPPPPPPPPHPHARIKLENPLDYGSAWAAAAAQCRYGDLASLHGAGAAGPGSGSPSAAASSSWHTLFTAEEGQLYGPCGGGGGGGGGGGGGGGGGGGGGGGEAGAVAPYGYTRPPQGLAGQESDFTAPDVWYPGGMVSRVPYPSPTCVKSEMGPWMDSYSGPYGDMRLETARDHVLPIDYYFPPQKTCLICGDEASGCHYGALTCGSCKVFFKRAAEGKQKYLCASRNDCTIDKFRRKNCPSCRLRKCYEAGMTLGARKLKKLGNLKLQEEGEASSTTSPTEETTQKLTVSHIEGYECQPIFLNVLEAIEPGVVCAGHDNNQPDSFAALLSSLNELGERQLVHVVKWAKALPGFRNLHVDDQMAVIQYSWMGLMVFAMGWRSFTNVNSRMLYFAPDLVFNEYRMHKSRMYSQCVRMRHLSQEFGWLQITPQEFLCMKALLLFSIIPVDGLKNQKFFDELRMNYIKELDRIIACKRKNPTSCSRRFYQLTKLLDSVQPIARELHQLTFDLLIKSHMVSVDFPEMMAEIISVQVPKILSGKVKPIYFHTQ
Test: AR reporter assay, LNCaP-AR-F876L ANT (antagonist mode)
Format: cell-based
Settings: for Emax: read-out: LNCaP-AR-F876L ANT MAX % Inh
Text: LNCaP AR (cs) and LNCaP F876L luciferase cell lines were generated by transduction of each cell line (description of cell line generation Joseph J D, Lu N, Qian J, Sensintaffar J, Shao G, Brigham D, Moon M, Maneval E C, Chen I, Darimont B, Hager J H. A clinically relevant androgen receptor mutation confers resistance to second-generation antiandrogens enzalutamide and ARN-509. Cancer Discov 2013; 3:1020-1029) with an Androgen Response Element Firefly Luciferase lentiviral construct at an MOI (multiplicity of infection) of 50 following the manufacturer's instructions (Qiagen). A stable pooled-population cell line was generated using puromycin (Life Technologies) selection at 1:10,000 v/v. The protocol below was used for both cell lines and for testing of the compounds of Formula (I) of the present invention.
LNCaP cells were grown to about 80% confluence, media removed and cells rinsed in Hank's balanced salt solution prior to separation from the plate with 0.05% Trypsin EDTA. Cells were lifted and trypsin negated in complete CSS (charcoal stripped serum) culture media. CSS was maintained on cells for 24 h prior to assay, at which time 5,000 cells/[…] were seeded in Greiner 384 well White/White Tissue Culture Treated Plates and incubated for a further 1-2 hours at 37° C., 5% CO2, prior to addition of 10 μL of 4× Test Compounds (compounds described herein) or Assay Controls (all diluted in complete media containing 10% css). A further 10 μL of 4× R-1881 Agonist Challenge (antagonist assay) or Buffer (agonist assay) was then added (all diluted in complete media containing 10% css). Agonist challenge was at 400 pM for WT assay and 600 pM for F876L assay. Plates containing cells and compounds herein were incubated for a further 20-24 hours at 37° C., 5% CO2 before addition of 40 μL/well of Steady-Glo Luciferase Assay System Reagent (Promega#E2520). After 1 h, plates were read for luminescence on a BMG Pherastar.
Agonist challenge: R-1881 (Metribolone)—Agonist
Antagonist control (low control): 5-(5-(4-((1-Methylpiperidin-4-yl)oxy)phenyl)-8-oxo-6-thioxo-5,7-diazaspiro[3.4]octan-7-yl)-3-(trifluoromethyl)picolinonitrile (WO 2011/103202, EXAMPLE 19, Compound 129, CAS #1332390-06-3).
(1−(Sample RLU−Ave Low Control RLU[10 μM Antagonist Control])/(Ave High Control RLU [400 pM R-1881]−Ave Low Control RLU[10 μM Antagonist Control]))*100.
EC/IC50 calculations were achieved utilizing calculated RLU data and data fitting macros. Data were fit using least-squares methods to the following formula: […]
As used herein: • pIC50 is defined as −Log10(IC50 expressed in [Molar]). • pEC50 is defined as −Log10(EC50 expressed in [Molar]). • MAX % Inh is defined as the maximum % inhibition of R1881 control response observed for a compound over the tested concentration range. • MAX % Stim is defined as the maximum % stimulation (agonist response) observed for a compound over the tested concentration range. • LNCaP-AR-wt ANT refers to the reporter assay using LNCaP cells stably transfected with the Androgen Response Element Firefly Luciferase lentiviral construct and wild-type Androgen Receptor (AR-wt) in Antagonist mode. • LNCaP-AR-wt AG refers to the reporter assay using LNCaP cells stably transfected with the Androgen Response Element Firefly Luciferase lentiviral construct and wild-type Androgen Receptor (AR-wt) in Agonist mode. • LNCaP-AR-F876L ANT refers to the reporter assay using LNCaP cells stably transfected with the Androgen Response Element Firefly Luciferase lentiviral construct and F876L mutant Androgen Receptor (AR-F876L) in Antagonist mode. • LNCaP-AR-F876L AG refers to the reporter assay using LNCaP cells stably transfected with the Androgen Response Element Firefly Luciferase lentiviral construct and F876L mutant Androgen Receptor (AR-F876L) in Agonist mode.

[1] = antagonist mode, 600 pM R-1881 challenge, luciferase reporter, -Log10(IC50 in Molar), read-out: LNCaP-AR-F876L ANT pIC50 (converted)

Row | Structure (SMILES) | IC50 | Emax | IC50 [1]
1 | CN1CCC(Oc2ccc(N3C(=S)N(c4ccc(C#N)c(C(F)(F)F)c4)C(=O)C34CCC4)cn2)CC1 [Compound 14, 4-(5-(6-((1-Methylpiperidin-4-yl)oxy)pyridin-3-yl)-8-oxo-6-thioxo-5,7-diazaspiro[3.4]octan-7-yl)-2-(trifluoromethyl)benzonitrile] | 57.5 nM | 101% | –
2 | CC1(C)C(=O)N(c2ccc(C#N)c(Cl)c2)C(=S)N1c1ccc(OC2CCNCC2)cc1 [Compound 7, 2-Chloro-4-(4,4-dimethyl-5-oxo-3-(4-(piperidin-4-yloxy)phenyl)-2-thioxoimidazolidin-1-yl)benzonitrile hydrochloride] | 38 nM | 101% | –
3 | N#Cc1ccc(N2C(=O)C3(CCC3)N(c3ccc(OC4CCNCC4)nc3)C2=S)cc1Cl [Compound 23, 2-Chloro-4-(8-oxo-5-(6-(piperidin-4-yloxy)pyridin-3-yl)-6-thioxo-5,7-diazaspiro[3.4]octan-7-yl)benzonitrile hydrochloride] | 50.1 nM | 103% | –
4 | CN1CCC(Oc2ccc(N3C(=S)N(c4ccc(C#N)c(Cl)c4)C(=O)C3(C)C)cn2)CC1 [Compound 10, 2-Chloro-4-(4,4-dimethyl-3-(6-((1-methylpiperidin-4-yl)oxy)pyridin-3-yl)-5-oxo-2-thioxoimidazolidin-1-yl)benzonitrile hydrochloride] | 85.1 nM | 101% | –
5 | CC1(C)C(=O)N(c2ccc(C#N)c(C(F)(F)F)c2)C(=S)N1c1ccc(OC2CCNCC2)cc1 [Compound 1, 4-(4,4-Dimethyl-5-oxo-3-(4-(piperidin-4-yloxy)phenyl)-2-thioxoimidazolidin-1-yl)-2-(trifluoromethyl)benzonitrile] | 41.7 nM | 102% | –
6 | CC1(C)C(=O)N(c2ccc(C#N)c(Cl)c2)C(=S)N1c1ccc(OC2CCNCC2)nc1 [Compound 9, 2-Chloro-4-(4,4-dimethyl-5-oxo-3-(6-(piperidin-4-yloxy)pyridin-3-yl)-2-thioxoimidazolidin-1-yl)benzonitrile hydrochloride] | 38.9 nM | 100% | –
7 | N#Cc1ccc(N2C(=O)C3(CCC3)N(c3ccc(OC4CCNCC4)cc3)C2=S)cc1Cl [Compound 21, 2-Chloro-4-(8-oxo-5-(4-(piperidin-4-yloxy)phenyl)-6-thioxo-5,7-diazaspiro[3.4]octan-7-yl)benzonitrile] | – | 104% | 200 nM
8 | CN1CCC(Oc2ccc(N3C(=S)N(c4ccc(C#N)c(Cl)c4)C(=O)C34CCC4)cn2)CC1 [Compound 24, 2-Chloro-4-(5-(6-((1-methylpiperidin-4-yl)oxy)pyridin-3-yl)-8-oxo-6-thioxo-5,7-diazaspiro[3.4]octan-7-yl)benzonitrile hydrochloride] | 77.6 nM | 99.8% | –
9 | CN1CCC(Oc2ccc(N3C(=S)N(c4ccc(C#N)c(Cl)c4)C(=O)C34CCC4)cc2)CC1 [Compound 22, 2-Chloro-4-(5-(4-((1-methylpiperidin-4-yl)oxy)phenyl)-8-oxo-6-thioxo-5,7-diazaspiro[3.4]octan-7-yl)benzonitrile] | 112 nM | 99.5% | –
10 | CN1CCC(Oc2ccc(N3C(=S)N(c4ccc(C#N)c(C(F)(F)F)c4)C(=O)C3(C)C)cc2)CC1 [Compound 2, 4-(4,4-Dimethyl-3-(4-((1-methylpiperidin-4-yl)oxy)phenyl)-5-oxo-2-thioxoimidazolidin-1-yl)-2-(trifluoromethyl)benzonitrile hydrochloride] | 69.2 nM | 101% | –
11 | CC1(C)C(=O)N(c2ccc(C#N)c(C(F)(F)F)c2)C(=S)N1c1cnc(OC2CCNCC2)nc1 [Compound 5, 4-(4,4-Dimethyl-5-oxo-3-(2-(piperidin-4-yloxy)pyrimidin-5-yl)-2-thioxoimidazolidin-1-yl)-2-(trifluoromethyl)benzonitrile] | 229 nM | 101% | –
12 | N#Cc1ccc(N2C(=O)C3(CCC3)N(c3ccc(OC4CCNCC4)cc3)C2=S)cc1C(F)(F)F [Compound 11, 4-(8-Oxo-5-(4-(piperidin-4-yloxy)phenyl)-6-thioxo-5,7-diazaspiro[3.4]octan-7-yl)-2-(trifluoromethyl)benzonitrile] | 107 nM | 102% | –
13 | CC1(C)C(=O)N(c2ccc(C#N)c(C(F)(F)F)c2)C(=S)N1c1ccc(OC2CCNCC2)nc1 [Compound 3, 4-(4,4-Dimethyl-5-oxo-3-(6-(piperidin-4-yloxy)pyridin-3-yl)-2-thioxoimidazolidin-1-yl)-2-(trifluoromethyl)benzonitrile hydrochloride] | 40.7 nM | 102% | –
14 | COc1cc(N2C(=O)C3(CCC3)N(c3ccc(OC4CCN(C)CC4)cc3)C2=S)ccc1C#N [Compound 19, 2-Methoxy-4-(5-(4-((1-methylpiperidin-4-yl)oxy)phenyl)-8-oxo-6-thioxo-5,7-diazaspiro[3.4]octan-7-yl)benzonitrile] | 83.2 nM | 101% | –
15 | CN1CCC(Oc2ccc(N3C(=S)N(c4ccc(C#N)c(C(F)(F)F)c4)C(=O)C34CCC4)cc2)CC1 [Compound 12, 4-(5-(4-((1-Methylpiperidin-4-yl)oxy)phenyl)-8-oxo-6-thioxo-5,7-diazaspiro[3.4]octan-7-yl)-2-(trifluoromethyl)benzonitrile] | 166 nM | 101% | –
16 | CN1CCC(Oc2ccc(N3C(=S)N(c4ccc(C#N)c(Cl)c4)C(=O)C3(C)C)cc2)CC1 [Compound 8, 2-Chloro-4-(4,4-dimethyl-3-(4-((1-methylpiperidin-4-yl)oxy)phenyl)-5-oxo-2-thioxoimidazolidin-1-yl)benzonitrile hydrochloride] | 58.9 nM | 101% | –
17 | N#Cc1ccc(N2C(=O)C3(CCC3)N(c3cnc(OC4CCNCC4)nc3)C2=S)cc1C(F)(F)F [Compound 15, 4-(8-Oxo-5-(2-(piperidin-4-yloxy)pyrimidin-5-yl)-6-thioxo-5,7-diazaspiro[3.4]octan-7-yl)-2-(trifluoromethyl)benzonitrile] | – | 101% | 107 nM
